Legend:
[1] = target: T1, Tyrosine-protein kinase BTK (Homo sapiens, UniProt Q06187); test: Inhibition of BTK in goat anti-human IgM F(ab')2-stimulated human PBMC assessed as suppression of BCR-induced CD69 expression on B cells pretreated for 1 hr followed by blood stimulation measured after overnight incubation by flow cytometry; assay type: cell-based
[2] = target: T1, Tyrosine-protein kinase BTK; test: Inhibition of recombinant human full length N-terminal GST-tagged BTK (2 to 659 residues) expressed in baculovirus expression system using FITC-AHA-EEPLYWSFPAKKK-NH2 substrate measured after 90 mins by off-chip mobility shift assay
[3] = Permeability across apical to basolateral side in human Caco2 cells; details: Caco-2
[4] = Efflux ratio of permeability in human Caco2 cells; details: Caco-2
[5] = target: T1, Tyrosine-protein kinase BTK; test: Inhibition of recombinant human full length N-terminal GST-tagged BTK (2 to 659 residues) expressed in baculovirus expression system at 100 uM using FITC-AHA-EEPLYWSFPAKKK-NH2 substrate measured after 90 mins by off-chip mobility shift assay relative to control
[6] = Half life in mouse at 0.5 mg/kg, po; assay type: ADME, organism-based; details: in vivo
Cytochrome P450 2C8 = target: T2, Cytochrome P450 2C8 (Homo sapiens, UniProt P10632); test: Inhibition of CYP2C8 (unknown origin); assay type: ADME
T2 sequence (P10632 whole entry): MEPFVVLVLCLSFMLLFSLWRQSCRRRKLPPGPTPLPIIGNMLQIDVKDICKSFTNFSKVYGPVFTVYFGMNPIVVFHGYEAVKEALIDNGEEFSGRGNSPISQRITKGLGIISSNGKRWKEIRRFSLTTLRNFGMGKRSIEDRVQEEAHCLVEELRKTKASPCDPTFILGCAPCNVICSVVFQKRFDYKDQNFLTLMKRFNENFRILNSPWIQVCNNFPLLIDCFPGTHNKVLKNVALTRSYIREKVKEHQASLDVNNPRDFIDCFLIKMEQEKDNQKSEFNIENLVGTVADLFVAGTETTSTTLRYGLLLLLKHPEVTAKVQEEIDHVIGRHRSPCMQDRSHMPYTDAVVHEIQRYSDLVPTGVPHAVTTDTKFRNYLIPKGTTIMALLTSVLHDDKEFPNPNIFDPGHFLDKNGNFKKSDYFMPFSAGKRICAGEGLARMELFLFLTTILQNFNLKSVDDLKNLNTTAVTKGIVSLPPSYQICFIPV

Cytochrome P450 2C9 = Cytochrome P450 2C9 (Homo sapiens, UniProt P11712); test: Inhibition of CYP2C9 (unknown origin); assay type: ADME
Sequence of Cytochrome P450 2C9 (P11712 whole entry): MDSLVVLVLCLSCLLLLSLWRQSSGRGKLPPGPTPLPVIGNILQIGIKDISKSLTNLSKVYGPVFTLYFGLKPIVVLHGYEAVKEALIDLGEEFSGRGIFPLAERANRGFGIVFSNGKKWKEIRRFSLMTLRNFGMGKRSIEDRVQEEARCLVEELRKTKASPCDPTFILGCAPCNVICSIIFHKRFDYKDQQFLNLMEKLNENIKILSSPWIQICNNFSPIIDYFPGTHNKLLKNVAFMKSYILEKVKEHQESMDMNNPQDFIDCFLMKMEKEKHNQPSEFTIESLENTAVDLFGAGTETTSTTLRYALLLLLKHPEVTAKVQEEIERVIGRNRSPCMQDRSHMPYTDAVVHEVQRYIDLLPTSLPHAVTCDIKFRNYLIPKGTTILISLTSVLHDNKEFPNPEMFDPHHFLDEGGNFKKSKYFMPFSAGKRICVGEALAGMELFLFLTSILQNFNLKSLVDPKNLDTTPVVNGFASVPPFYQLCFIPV

Cytochrome P450 3A4 = Cytochrome P450 3A4 (Homo sapiens, UniProt P08684); test: Inhibition of CYP3A4 (unknown origin); assay type: ADME
Sequence of Cytochrome P450 3A4 (P08684 whole entry): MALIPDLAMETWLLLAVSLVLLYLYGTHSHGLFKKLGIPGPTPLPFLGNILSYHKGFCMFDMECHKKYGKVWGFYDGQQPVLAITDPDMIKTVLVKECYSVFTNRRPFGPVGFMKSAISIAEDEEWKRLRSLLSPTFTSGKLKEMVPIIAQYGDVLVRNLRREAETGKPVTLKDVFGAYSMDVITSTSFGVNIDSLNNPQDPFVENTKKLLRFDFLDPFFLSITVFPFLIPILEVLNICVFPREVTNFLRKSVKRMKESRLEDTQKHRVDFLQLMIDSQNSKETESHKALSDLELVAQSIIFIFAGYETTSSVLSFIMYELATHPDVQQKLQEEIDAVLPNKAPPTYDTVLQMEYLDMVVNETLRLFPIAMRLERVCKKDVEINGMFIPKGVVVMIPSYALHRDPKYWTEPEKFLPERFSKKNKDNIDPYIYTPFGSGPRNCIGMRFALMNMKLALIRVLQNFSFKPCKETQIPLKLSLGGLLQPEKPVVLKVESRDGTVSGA

Cytochrome P450 2C19 = Cytochrome P450 2C19 (Homo sapiens, UniProt P33261); test: Inhibition of CYP2C19 (unknown origin); assay type: ADME
Sequence of Cytochrome P450 2C19 (P33261 whole entry): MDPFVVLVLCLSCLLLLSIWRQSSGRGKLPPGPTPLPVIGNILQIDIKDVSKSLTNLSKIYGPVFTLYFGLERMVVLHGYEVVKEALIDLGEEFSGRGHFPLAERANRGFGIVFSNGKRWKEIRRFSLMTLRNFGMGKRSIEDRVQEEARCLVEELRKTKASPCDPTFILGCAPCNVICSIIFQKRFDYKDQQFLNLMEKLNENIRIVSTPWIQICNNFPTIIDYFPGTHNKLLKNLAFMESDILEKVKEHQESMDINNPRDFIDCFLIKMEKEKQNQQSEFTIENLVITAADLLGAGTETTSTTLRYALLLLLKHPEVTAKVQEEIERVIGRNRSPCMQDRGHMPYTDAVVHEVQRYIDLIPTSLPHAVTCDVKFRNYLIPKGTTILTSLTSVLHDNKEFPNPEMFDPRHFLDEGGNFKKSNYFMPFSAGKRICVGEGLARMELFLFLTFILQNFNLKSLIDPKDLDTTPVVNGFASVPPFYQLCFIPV

Cytochrome P450 2B6 = target: T3, Cytochrome P450 2B6 (Homo sapiens, UniProt P20813); test: Inhibition of CYP2B6 (unknown origin); assay type: ADME
T3 sequence (P20813 whole entry): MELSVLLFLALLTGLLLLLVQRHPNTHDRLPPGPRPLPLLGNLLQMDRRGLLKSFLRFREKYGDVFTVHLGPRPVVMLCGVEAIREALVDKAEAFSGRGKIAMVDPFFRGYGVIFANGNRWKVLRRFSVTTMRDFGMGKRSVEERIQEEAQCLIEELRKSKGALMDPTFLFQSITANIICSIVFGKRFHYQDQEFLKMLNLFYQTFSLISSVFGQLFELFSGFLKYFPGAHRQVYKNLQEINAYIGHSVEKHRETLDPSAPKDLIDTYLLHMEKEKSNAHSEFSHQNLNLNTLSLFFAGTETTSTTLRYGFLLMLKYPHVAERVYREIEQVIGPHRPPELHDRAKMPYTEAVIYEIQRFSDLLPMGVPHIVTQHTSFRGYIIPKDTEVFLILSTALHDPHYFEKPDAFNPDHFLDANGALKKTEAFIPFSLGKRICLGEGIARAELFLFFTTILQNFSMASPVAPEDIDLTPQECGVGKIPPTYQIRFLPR

[7] = AUC in mouse at 0.5 mg/kg, po; assay type: ADME, organism-based; details: in vivo

T1 sequence (Q06187 whole entry, the tested form may be a part): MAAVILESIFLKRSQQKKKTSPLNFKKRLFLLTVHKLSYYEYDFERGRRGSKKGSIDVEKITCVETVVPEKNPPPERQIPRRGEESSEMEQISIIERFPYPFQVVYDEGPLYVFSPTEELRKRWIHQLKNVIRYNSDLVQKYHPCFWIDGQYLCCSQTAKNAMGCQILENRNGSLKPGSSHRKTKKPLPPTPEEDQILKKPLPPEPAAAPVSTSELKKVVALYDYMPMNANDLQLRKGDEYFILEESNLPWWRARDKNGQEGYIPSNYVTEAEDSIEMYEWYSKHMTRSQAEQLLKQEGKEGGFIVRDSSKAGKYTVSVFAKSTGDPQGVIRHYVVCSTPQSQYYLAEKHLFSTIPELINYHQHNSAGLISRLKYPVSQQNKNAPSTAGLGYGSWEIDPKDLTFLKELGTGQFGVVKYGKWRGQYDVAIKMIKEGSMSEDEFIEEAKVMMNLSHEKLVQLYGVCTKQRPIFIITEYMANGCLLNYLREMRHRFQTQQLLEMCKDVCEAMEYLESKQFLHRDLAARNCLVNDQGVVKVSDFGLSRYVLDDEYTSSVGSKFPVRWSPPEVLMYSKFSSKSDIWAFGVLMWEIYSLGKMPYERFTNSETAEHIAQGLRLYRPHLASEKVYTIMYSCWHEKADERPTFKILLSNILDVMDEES

Row | SMILES | IC50 [1] | IC50 [2] | also measured
1 | C=CC(=O)N1C[C@H]2C[C@@H]1CN2c1ccc(C(N)=O)c(Nc2ccc(C)nc2)n1 | 1.4 nM | 0.1 nM | 
2 | NC(=O)c1ccc(N2CC[C@H](N)C2)nc1Nc1ccc(C(=O)N2CCOCC2)cc1 |  | 1600 nM | 
3 | C=CC(=O)N1CCN(c2ccc(C(N)=O)c(Nc3ccc(CCN4CCCC4)cc3)n2)CC1 | 4.3 nM | 0.3 nM | 
4 | C=CC(=O)N(C)[C@H]1CCN(c2ccc(C(N)=O)c(Nc3ccc(CCN4CCCC4)cc3)n2)C1 | 41 nM | 1.3 nM | Papp A→B [3]: 0.07 ×10⁻⁶ cm/s; efflux ratio [4]: 266
5 | C=CC(=O)N[C@@H]1CN(c2ccc(C(N)=O)c(Nc3ccc(CCN4CCCC4)cc3)n2)CC12CC2 | 4.9 nM | 0.09 nM | Papp A→B [3]: 0.02 ×10⁻⁶ cm/s; efflux ratio [4]: 822
6 | NC(=O)c1ccc(NC2CCCCC2)nc1 |  | > 6000 nM | inhibition [5]: 71%
7 | C=CC(=O)N1CCC[C@@H](n2nc(-c3ccc(Oc4ccccc4)cc3)c3c(N)ncnc32)C1 [IBRUTINIB] |  |  | half-life [6]: 30 min; INH (Cytochrome P450 2C8): 7.9 µM; INH (Cytochrome P450 2C9): 8.5 µM; INH (Cytochrome P450 3A4): 11 µM; INH (Cytochrome P450 2C19): 19 µM; INH (Cytochrome P450 2B6): 11.1 µM; AUC [7]: 26 ng·h/mL
8 | C=CC(=O)N[C@H]1CCN(c2ccc(C(N)=O)c(Nc3ccc(CCN4CCCC4)cc3)n2)C1 | 7 nM | 1.9 nM | 
9 | C=CC(=O)N[C@H]1CCN(c2ccc(C(N)=O)c(Nc3ccc(Oc4ccccc4)cc3)n2)C1 |  | 11 nM | 
10 | C=CC(=O)N[C@H]1CCN(c2ccc(C(N)=O)c(Nc3ccc(C(=O)N4CCOCC4)cc3)n2)C1 |  | 1.5 nM | 
11 | C=CC(=O)N[C@H]1CCCN(c2ccc(C(N)=O)c(Nc3ccc(C(=O)N4CCOCC4)cc3)n2)C1 |  | 16 nM | 
12 | C=CC(=O)N[C@H]1CCN(c2ccc(C(N)=O)c(NC3CCCCC3)n2)C1 |  | > 6000 nM | 
13 | C=CC(=O)N[C@@H]1CCN(c2ccc(C(N)=O)c(Nc3ccc(C(=O)N4CCOCC4)cc3)n2)C1 |  | 16.2 nM | 

Further lines, with some results ahead:

Row | IC50 [1] | IC50 [2] | SMILES | also measured
14 |  | 180 nM | C=CC(=O)N[C@H]1CCN(c2ncc(C(N)=O)c(N)n2)C1 | 
15 | 44 nM | 1.1 nM | C=CC(=O)N[C@H]1CCN(c2ncc(C(N)=O)c(Nc3ccc(C(=O)N4CC(C)OC(C)C4)cc3)n2)C1 (some centres undefined) | 
16 | 14 nM | 1.6 nM | C=CC(=O)N[C@H]1CCN(c2nc(Nc3ccc(N4C[C@@H](C)O[C@@H](C)C4)cc3)c(C(N)=O)cc2F)C1 | 
17 | 6.1 nM | 0.6 nM | C=CC(=O)N[C@H]1CCN(c2ccc(C(N)=O)c(Nc3ccc(N4C[C@@H](C)O[C@@H](C)C4)cc3)n2)C1 | 
18 |  | 0.5 nM | C=CC(=O)N[C@H]1CCN(c2ncc(C(N)=O)c(Nc3ccc(C(=O)N4CCOCC4)cc3)n2)C1 | 
19 |  | 8 nM | C=CC(=O)N[C@H]1CCN(c2ncc(C(N)=O)c(Nc3ccc(F)cc3)n2)C1 | 
20 |  | 500 nM | C=CC(=O)N[C@@H]1CCN(c2ncc(C(N)=O)c(N)n2)C1 | 

Reference: ChEMBL document CHEMBL4261605, “Discovery of a novel series of pyridine and pyrimidine carboxamides as potent and selective covalent inhibitors of Btk” (Bioorg Med Chem Lett, 2018)
